Assay results: ChEMBL document CHEMBL4002643, “Tubulin-binding dibenz[c,e]oxepines: Part 2. Structural variation and biological evaluation as tumour vasculature disrupting agents” (Bioorg Med Chem, 2017)
Values belong to the compound of their own block, whether it stands above or below them.

Key:
K562 = experiment: Cytotoxicity against human K562 cells assessed as growth inhibition after 5 days by MTT assay; format: functional, cell-based; conditions: K562, 120 h
[1] = Inhibition of porcine tubulin assembly measured for 30 mins by UV/visible spectrophotometric method; set-up: species or system Sus scrofa
DLD-1 [2] = experiment: Induction of vascular shutdown in human DLD1 cells xenografted in Balb/C immunodeficient nude mouse assessed as vascular element counts at 400 mg/kg, iv at 24 hrs post dose by […] dye-based microscopic method (reference value: 3.73 +/- 3.1%); format: functional
DLD-1 [3] = experiment: Vascular disrupting activity in human DLD1 cells xenografted in Balb/C immunodeficient nude mouse assessed as induction of necrosis by measuring necrotic area at 400 mg/kg, iv at 1 hr post dose by haematoxylin and eosin staining-based assay (reference value: 19 +/- 9.6%); format: functional
DLD-1 [4] = experiment: Vascular disrupting activity in human DLD1 cells xenografted in Balb/C immunodeficient nude mouse assessed as induction of necrosis by measuring necrotic area at 400 mg/kg, iv at 4 hrs post dose by haematoxylin and eosin staining-based assay (reference value: 19 +/- 9.6%); format: functional
DLD-1 [5] = experiment: Induction of vascular shutdown in human DLD1 cells xenografted in Balb/C immunodeficient nude mouse assessed as vascular element counts at 400 mg/kg, iv at 1 hr post dose by […] dye-based microscopic method (reference value: 3.73 +/- 3.1%); format: functional
DLD-1 [6] = experiment: Vascular disrupting activity in human DLD1 cells xenografted in Balb/C immunodeficient nude mouse assessed as induction of necrosis by measuring necrotic area at 400 mg/kg, iv at 24 hrs post dose by haematoxylin and eosin staining-based assay (reference value: 19 +/- 9.6%); format: functional
DLD-1 [7] = experiment: Induction of vascular shutdown in human DLD1 cells xenografted in Balb/C immunodeficient nude mouse assessed as vascular element counts at 400 mg/kg, iv at 4 hrs post dose by […] dye-based microscopic method (reference value: 3.73 +/- 3.1%); format: functional
DLD-1 [8] = experiment: Induction of vascular shutdown in human DLD1 cells xenografted in Balb/C immunodeficient nude mouse at 400 mg/kg, iv by […] dye-based microscopic method; format: functional, organism-based; conditions: TDE = time-dependent effect
[9] = Inhibition of tubulin (unknown origin) assembly preincubated for 30 mins followed by GTP addition by spectrophotometric method; set-up: species or system Homo sapiens

- IC50 [1]: > 10000 nM
Structure (SMILES): COc1cc2c(c(OC)c1OC)-c1ccc([N+](=O)[O-])cc1COC2
- IC50 (K562): 16000 nM

Structure (SMILES): COc1cc2c(c(OC)c1OC)-c1ccc(OP(=O)([O-])[O-])cc1[C@@H](NC(C)=O)CC2.[Na+].[Na+]
- Activity (DLD-1 [2]): 0.42%
- Activity (DLD-1 [3]): 23.2%
- Activity (DLD-1 [4]): 22.3%
- Activity (DLD-1 [5]): 0.03%
- Activity (DLD-1 [6]): 91%
- Activity (DLD-1 [7]): 0.12%
- Activity (DLD-1 [8]): Tde

Structure (SMILES): COc1ccc2c(c1)[C@@H](NC(C)=O)CCc1cc(OC)c(OC)c(OC)c1-2
- IC50 [9]: 700 nM

Structure (SMILES): COc1ccc(/C=C\c2cc(OC)c(OC)c(OC)c2)cc1O [COMBRETASTATIN A4]
- IC50 (K562): 1000 nM

Structure (SMILES): COc1ccc(/C=C\c2cc(OC)c(OC)c(OC)c2)cc1OP(=O)(O)O [FOSBRETABULIN DISODIUM]
- IC50 (K562): 720 nM
- IC50 [1]: 900 nM
